# Experimental data as given in US5043450A, “8-alkoxyquinolonecarboxylic acid and salts thereof” (priority 1986, dated 1991).
# Where two headings read alike, the source gives them in different places.
# Assays:
# Format in all cases: cell-based
# [1] = system: Serratia marcescens IID 618; test: Antibacterial spectra, MIC
# [2] = system: Propionibacterium acens 11828; test: Antibacterial spectra, MIC
# [3] = system: P. mirabilis IID 994; test: Antibacterial spectra, MIC; conditions: Proteus mirabilis, IID994
# [4] = system: S. pyogenes IID 692; test: Antibacterial spectra, MIC; conditions: Streptococcus pyogenes, IID692
# [5] = system: Peptostreptococcus anaerobius KYA 27337; test: Antibacterial spectra, MIC; conditions: KYA27337
# [6] = system: Citrobacter freundii IID 976; test: Antibacterial spectra, MIC
# [7] = system: P. aeruginosa IID 1210; test: Antibacterial spectra, MIC; conditions: Pseudomonas aeruginosa, IID1210
# [8] = system: P. aeruginosa IFO 12689; test: Antibacterial spectra, MIC; conditions: Pseudomonas aeruginosa, IFO12689
# [9] = system: Escherichia coli NIHJ JC-2; test: Antibacterial spectra, MIC
# [10] = system: Yersinia enterocolitica IID 981; test: Antibacterial spectra, MIC
# [11] = system: Salmonella enteritidis IID 604; test: Antibacterial spectra, MIC; conditions: Salmonella enterica
# [12] = system: Morganella morganii IID 602; test: Antibacterial spectra, MIC
# [13] = system: Pseudomonas aeruginosa V-1; test: Antibacterial spectra, MIC
# [14] = system: Staphylococcus aureus 209 P; test: Antibacterial spectra, MIC
# [15] = system: B. vulgatus KYA 29327; test: Antibacterial spectra, MIC; conditions: Phocaeicola vulgatus, KYA29327
# [16] = system: C. ramosum; test: Antibacterial spectra, MIC; conditions: Thomasclavelia ramosa
# [17] = system: B. thetaiotaomicron (0661); test: Antibacterial spectra, MIC; conditions: Bacteroides thetaiotaomicron
# [18] = system: F. necrophorum S-45; test: Antibacterial spectra, MIC; conditions: Fusobacterium necrophorum, S45
# [19] = system: Bacteroides fragilis GM 7000; test: Antibacterial spectra, MIC
# [20] = system: B. distasonis 8503; test: Antibacterial spectra, MIC; conditions: Parabacteroides distasonis
# [21] = system: Clostridium difficile I-E; test: Antibacterial spectra, MIC; conditions: Clostridioides difficile
# [22] = system: Fusobacterium mortiferum 4249; test: Antibacterial spectra, MIC
# [23] = system: P. cepacia GIFU 518; test: Antibacterial spectra, MIC; conditions: Burkholderia cepacia, GIFU518
# [24] = system: Eubacterium lentum GAI 5242; test: Antibacterial spectra, MIC; conditions: Eggerthella lenta, GAI5242
# [25] = system: Bacilus subtilis PCI 219; test: Antibacterial spectra, MIC; conditions: Bacillus subtilis, PCI219
# [26] = system: B. fragilis 0558; test: Antibacterial spectra, MIC; conditions: Bacteroides fragilis
# [27] = system: E. coli ATCC 10536; test: Antibacterial spectra, MIC; conditions: Escherichia coli, ATCC10536
# [28] = system: Acinetobacter anitratus IID 876; test: Antibacterial spectra, MIC; conditions: Acinetobacter calcoaceticus, IID876
# [29] = system: Enterobacter cloacae IID 977; test: Antibacterial spectra, MIC
# [30] = system: Veillonella parvula KYA 10790; test: Antibacterial spectra, MIC
# [31] = system: Shigella sonnei IID 969; test: Antibacterial spectra, MIC; conditions: IID969, 10^6 cells/ml, Gram -
# Procedure: (§1) The antibacterial test was carried out according to the method designated by Japan Society of Chemotherapy.
# [32] = system: E. faecalis IID 682; test: Antibacterial spectra, MIC; conditions: Enterococcus faecalis, IID682; 10^6 cells/ml; Gram +
# Procedure: as §1
# [33] = system: Streptococcus pyogenes (S-8); test: Antibacterial spectra, MIC; conditions: 10^6 cells/ml, Gram +
# Procedure: as §1
# [34] = system: E. coli ML 4707; test: Antibacterial spectra, MIC; conditions: Escherichia coli, ML4707; 10^6 cells/ml; Gram -
# Procedure: as §1
# [35] = system: Proteus vulgaris IFO 3167; test: Antibacterial spectra, MIC; conditions: IFO3167, 10^6 cells/ml, Gram -
# Procedure: as §1
# [36] = system: Peptococcus magnus KY 017; test: Antibacterial spectra, MIC; conditions: Finegoldia magna, KY017
# [37] = system: B. fragilis 25285; test: Antibacterial spectra, MIC; conditions: Bacteroides fragilis
# [38] = system: Klebsiella pneumoniae KY(GN)6445; test: Antibacterial spectra, MIC
# [39] = system: S. aureus IID 670 (Terajima); test: Antibacterial spectra, MIC; conditions: Staphylococcus aureus, IID670
# [40] = system: Pst. micros UPI 5464-1; test: Antibacterial spectra, MIC; conditions: Parvimonas micra, UPI54641
# [41] = system: F. varium KYA 8501; test: Antibacterial spectra, MIC; conditions: Fusobacterium varium, KYA8501
# [42] = system: Alcaligenes faecalis 0114002; test: Antibacterial spectra, MIC
# [43] = system: P. maltophilia GIFU 2491; test: Antibacterial spectra, MIC; conditions: Stenotrophomonas maltophilia, GIFU2491
# [44] = system: S. aureus Smith; test: Antibacterial spectra, MIC; conditions: Staphylococcus aureus
# [45] = system: S. epidermidis IID 866; test: Antibacterial spectra, MIC; conditions: Staphylococcus epidermidis, IID866
# [46] = system: K. pneumoniae 1-220S; test: Antibacterial spectra, MIC; conditions: Klebsiella pneumoniae, 1220S
# [47] = system: S. pneumoniae IID 552; test: Antibacterial spectra, MIC; conditions: Streptococcus pneumoniae, IID552
# [48] = system: C. perfringens KYA 13123; test: microbe, parasite or virus in culture; conditions: Clostridium perfringens, KYA13123
# [49] = 10^6 cells/ml, Gram +, read-out: MIC
# [50] = 10^6 cells/ml, Gram -, read-out: MIC
smiles,measurement,setting,value
"COc1c(N2C[C@@H](N)[C@@H](C)C2)c(F)cc2c(=O)c(C(=O)O)cn(C3CC3)c12 (relative stereo) [Exp. 5, 7-(cis-3-amino-4-methyl-1-pyrrolidinyl)-1-cyclopropyl-6-fluoro-1,4-dihydro-8-methoxy-4-oxo-3-quinolinecarboxylic acid]",MIC,[1]; IID618,0.05 µg/mL
same,MIC,[2]; [49],1.56 µg/mL
same,MIC,[3],0.05 µg/mL
same,MIC,[4],0.1 µg/mL
same,MIC,[5],0.2 µg/mL
same,MIC,[6]; IID976,0.05 µg/mL
same,MIC,[7],0.78 µg/mL
same,MIC,[8],0.78 µg/mL
same,MIC,[9]; NIHJJC2,0.0125 µg/mL
same,MIC,[10]; IID981,0.05 µg/mL
same,MIC,[11],0.05 µg/mL
same,MIC,[12]; IID602,0.05 µg/mL
same,MIC,[13]; V1,0.78 µg/mL
same,MIC,[14],0.025 µg/mL
same,MIC,[15],0.2 µg/mL
same,MIC,[16],0.78 µg/mL
same,MIC,[17],0.1 µg/mL
same,MIC,[18],0.2 µg/mL
same,MIC,[19]; GM7000,0.1 µg/mL
same,MIC,[20],0.39 µg/mL
same,MIC,[21],0.39 µg/mL
same,MIC,[22],0.2 µg/mL
same,MIC,[23],0.78 µg/mL
same,MIC,[24],≤ 0.05 µg/mL
same,MIC,[25],0.0125 µg/mL
same,MIC,[26],0.1 µg/mL
same,MIC,[27],0.0125 µg/mL
same,MIC,[28],0.05 µg/mL
same,MIC,[29]; IID977,0.05 µg/mL
same,MIC,[30]; KYA10790,0.2 µg/mL
same,MIC,[31],0.025 µg/mL
same,MIC,[32],0.1 µg/mL
same,MIC,[33],0.1 µg/mL
same,MIC,[34],0.025 µg/mL
same,MIC,[35],0.025 µg/mL
same,MIC,[36],0.1 µg/mL
same,MIC,[37],0.1 µg/mL
same,MIC,[38],0.025 µg/mL
same,MIC,[39],0.05 µg/mL
same,MIC,[40],0.2 µg/mL
same,MIC,[41]; [50],1.56 µg/mL
same,MIC,[42],0.2 µg/mL
same,MIC,[43],0.1 µg/mL
same,MIC,[44],0.05 µg/mL
same,MIC,[45],0.1 µg/mL
same,MIC,[46],0.05 µg/mL
same,MIC,[47],0.1 µg/mL
COc1c(N2CCNCC2)c(F)cc2c(=O)c(C(=O)O)cn(C3CC3)c12 [Exp. 1],MIC,"[1]; IID618, 10^6 cells/ml, Gram -, read-out: MIC",0.05 µg/mL
same,MIC,[2],3.13 µg/mL
same,MIC,[3]; [50],0.025 µg/mL
same,MIC,[5],0.39 µg/mL
same,MIC,"[6]; IID976, 10^6 cells/ml, Gram -, read-out: MIC",0.025 µg/mL
same,MIC,[7],0.39 µg/mL
same,MIC,[8]; [50],0.78 µg/mL
same,MIC,"[9]; NIHJJC2, 10^6 cells/ml, Gram -, read-out: MIC",≤ 0.0063 µg/mL
same,MIC,"[10]; IID981, 10^6 cells/ml, Gram -, read-out: MIC",0.05 µg/mL
same,MIC,[11]; [50],0.05 µg/mL
same,MIC,"[12]; IID602, 10^6 cells/ml, Gram -, read-out: MIC",0.05 µg/mL
same,MIC,"[13]; V1, 10^6 cells/ml, Gram -, read-out: MIC",0.1 µg/mL
same,MIC,[14]; [49],0.1 µg/mL
same,MIC,[15]; [50],0.78 µg/mL
same,MIC,[16],3.13 µg/mL
same,MIC,[17]; [50],1.56 µg/mL
same,MIC,[18],0.39 µg/mL
same,MIC,"[19]; GM7000, 10^6 cells/ml, Gram -, read-out: MIC",0.78 µg/mL
same,MIC,[20]; [50],1.56 µg/mL
same,MIC,[21],3.13 µg/mL
same,MIC,[22],0.39 µg/mL
same,MIC,[23]; [50],0.78 µg/mL
same,MIC,[24]; [49],0.2 µg/mL
same,MIC,[25]; [49],0.025 µg/mL
same,MIC,[26],0.39 µg/mL
same,MIC,[27]; [50],0.025 µg/mL
same,MIC,[28]; [50],0.1 µg/mL
same,MIC,"[29]; IID977, 10^6 cells/ml, Gram -, read-out: MIC",0.05 µg/mL
same,MIC,"[30]; KYA10790, 10^6 cells/ml, Gram -, read-out: MIC",0.2 µg/mL
same,MIC,[31],0.0125 µg/mL
same,MIC,[34],0.025 µg/mL
same,MIC,[35],0.0125 µg/mL
same,MIC,[36]; [49],0.2 µg/mL
same,MIC,[37],0.39 µg/mL
same,MIC,[38]; [50],0.025 µg/mL
same,MIC,[39]; [49],0.1 µg/mL
same,MIC,[48],0.39 µg/mL
same,MIC,[40]; [49],0.2 µg/mL
same,MIC,[41],3.13 µg/mL
same,MIC,[42]; [50],0.2 µg/mL
same,MIC,[43],0.39 µg/mL
same,MIC,[44]; [49],0.1 µg/mL
same,MIC,[45]; [49],0.1 µg/mL
same,MIC,[46]; [50],0.05 µg/mL
